According to patent US20030162788A1, “Combination of MTP inhibitors or apoB-secretion inhibitors with fibrates for use as pharmaceuticals” (Boehringer Ingelheim Pharma KG, priority 2002, published 2003):

Assays:
fa/fa rats [1] = assay: Activities of liver enzymes (ALT, AST, GLDH) in the plasma of fa/fa rats (liver toxicity); type: in vivo, rat; details: for ALT [U/I], MW ± SEM / AST [U/I], MW ± SEM: plasma, fenofibrate 100 mg/kg twice a day (eight times)
Text: The horizontal line in the diagram indicates three times the level in the control group and is interpreted as the threshold value for a clearly toxic side effect.).

fa/fa rats [2] = assay: Cholesterol and triglycerides in the plasma of hyperlipaemic fa/fa rats after oral treatment; details: for lowering of cholesterol in the plasma compared with the control group / lowering of triglycerides in the plasma compared with the control group: Example A, female fa/fa rats 33 weeks old, MTP inhibitor 1 mg/kg once a day (four times), bezafibrate 100 mg/kg twice a day (eight times), blood 24 hours after last MTP inhibitor dose or 15 hours after last fibrate dose
Experimental: The effectiveness of the combination of an MTP inhibitor with a fibrate and the effect on hepatic steatosis and liver toxicity can be tested in vivo as follows. Hyperlipaemic rats (e.g. of the rat strain fa/fa) are given the active substances as a suspension in 0.45% NaCl and 5% polyethyleneglycol 400 by oral route using an oesophageal tube (5 ml/kg of body weight). The substances may be given once or several times a day for a period of 4 days, or alternatively over a longer period. The day after the last dose, blood samples are taken by puncturing the retroorbital venous plexus and plasma is prepared. The concentrations of cholesterol and triglycerides in the plasma and the activities of the liver enzymes (e.g. ALT, AST, GLDH) are determined by well-known methods of clinical chemistry. These substrates and enzymes in the plasma may be measured for example with a HITACHI 917 Automatic Analyzer using reagents supplied by Roche Diagnostics (Mannheim) in accordance with the following procedures laid down by Roche Diagnostics:
cholesterol: BM/HITACHI 917, Boehringer Mannheim System No. 1 491 458
triglycerides: BM/HITACHI 917, Boehringer Mannheim System No. 1 730 711.
Female fa/fa rats 33 weeks old were either treated four times with an MTP inhibitor (given orally once a day at 7 a.m.) or treated eight times with a fibrate (given twice a day by oral route at 7 a.m. and 4 p.m.) A third group were given both the MTP inhibitor and the fibrate. The MTP inhibitor was 9-[4-[4-[2-(4-trifluoromethylphenyl)benzoylamino]piperidin-1-yl]butyl]-N-(2,2,2-trifluoro-ethyl)-9H-fluorene-9-carboxamide in a dosage of 1 mg/kg. The fibrate was bezafibrate in a dosage of 100 mg/kg. 24 hours after the last dose of the MTP inhibitor or 15 hours after the last dose of the fibrate blood samples were taken from the animals and the cholesterol, triglycerides and liver enzymes in the plasma were measured.
Male fa/fa rats 32 weeks old were either treated four times with an MTP inhibitor (given orally once a day between about 7 and 8 a.m.) or treated eight times with a fibrate (given twice a day by oral route between about 7 and 8 a.m. and at 4 p.m.) Another group were given both the MTP inhibitor and the fibrate. […] The fibrate was fenofibrate in a dosage of 100 mg/kg. 24 hours after the last dose of the MTP inhibitor or 15 hours after the last dose of fenofibrate, blood was taken from the animals and the levels of cholesterol, triglycerides and liver enzymes in the plasma were measured.
Male fa/fa rats 33 weeks old were either treated four times with an MTP inhibitor (given orally once a day between about 7 and 8 a.m.) or treated eight times with a fibrate (given twice a day by oral route between about 7 and 8 a.m. and at 4 p.m.) Another group were given both the MTP inhibitor and the fibrate. […] The fibrate was fenofibrate in a dosage of 100 mg/kg. 24 hours after the last dose of the MTP inhibitor or 15 hours after the last dose of fenofibrate, blood was taken from the animals and the levels of cholesterol, triglycerides and liver enzymes in the plasma were measured.

fa/fa rats [3] = assay: Hepatic steatosis: lipid content (triglycerides, free fatty acids) in the liver of fa/fa rats; type: in vivo, rat; details: Example B; female fa/fa rats 38 weeks old; oral; MTP inhibitor 0.3 mg/kg once a day (four times); livers removed 24 hours after last dose
Experimental: In addition, the liver may be removed in order to determine the hepatic steatosis by measuring the lipid content (triglycerides, free fatty acids, cholesterol) in this organ. To do this, 200 mg of liver are homogenised after the addition of 2 ml of isopropanol and extracted for 10 min with shaking. The extract is centrifuged for 10 min at 4° C. and 4000 rpm and one aliquot of the supernatant is used to determine the lipid parameters. The lipids in the liver are measured using commercially available test kits following the manufacturer's instructions (for triglycerides: Triglycerid-Duo S made by BIOMED Labordiagnostik GmbH, Oberschleiβheim; for cholesterol: Cholesterin-Duo S made by BIOMED Labordiagnostik GmbH, Oberschleiβheim; for free fatty acids: NEFA C made by Wako Chemicals GmbH, Neuss).
The MTP inhibitor leads to an increase in the triglycerides and the free fatty acids in the liver (FIGS. 3a and 3b). By combining it with the fibrate, the lipid accumulation caused by the MTP inhibitor is lowered by about 50% (triglycerides in the liver) or by about 80% (free fatty acids in the liver).

[4] = Example C, male fa/fa rats 32 weeks old, compound (c) 10 mg/kg oral once a day
[5] = Example C, male fa/fa rats 32 weeks old, oral, compound (c) 10 mg/kg once a day (four times)
[6] = Example C, male fa/fa rats 32 weeks old, compound (c) 10 mg/kg once a day, fenofibrate 100 mg/kg twice a day
[7] = Example D, male fa/fa rats 33 weeks old, compound (a) 3 mg/kg oral once a day
[8] = Example D, male fa/fa rats 33 weeks old, oral, compound (a) 3 mg/kg once a day (four times)
[9] = Example D, male fa/fa rats 33 weeks old, compound (a) 3 mg/kg once a day, fenofibrate 100 mg/kg twice a day
[10] = Example D, male fa/fa rats 33 weeks old, fenofibrate 100 mg/kg twice a day
[11] = Example A, female fa/fa rats 33 weeks old, oral, MTP inhibitor 1 mg/kg once a day (four times)

## Cn1cc(NC(=O)c2ccccc2-c2ccc(C(F)(F)F)cc2)cc1C(=O)NCc1ccc(N2CCC3(CCCCC3)CC2)cc1 [Compound (c), N-[4-(3-Aza-spiro[5.5]undec-3-yl)-phenylmethyl]-4-(4′-trifluoromethylbiphenyl-2-carbonylamino)-1-methyl-pyrrole-2-carboxylic acid amide]
fa/fa rats [1]; [4]
  increase in the activity of ALT in the plasma: 3.6 fold
  increase in the activity of AST in the plasma: 4.5 fold
fa/fa rats [1]; [5]
  ALT [U/I], MW ± SEM: 232.9 ± 40.6 U/I
  AST [U/I], MW ± SEM: 232.7 ± 34.2 U/I
fa/fa rats [2]; [6]
  reduction of cholesterol in the plasma compared with the control group: 58%
  reduction of triglycerides in the plasma compared with the control group: 94%

## Cn1cc(NC(=O)c2ccccc2-c2ccc(C(F)(F)F)cc2)cc1C(=O)NCC#Cc1ccc(-c2ccccc2)cc1 [Compound (a), N-[3-(Biphenyl-4-yl)-prop-2-ynyl]-4-(4′-trifluoromethylbiphenyl-2-carbonylamino)-1-methyl-pyrrole-2-carboxylic acid amide]
fa/fa rats [1]; [7]
  increase in the activity of ALT in the plasma: 5.1 fold
  increase in the activity of AST in the plasma: 6.7 fold
fa/fa rats [1]; [8]
  ALT [U/I], MW ± SEM: 232.8 ± 67.8 U/I
  AST [U/I], MW ± SEM: 218.4 ± 57.1 U/I
fa/fa rats [2]; [9]
  reduction of cholesterol in the plasma compared with the control group: 26%
  reduction of triglycerides in the plasma compared with the control group: 76%

## CC(C)OC(=O)C(C)(C)Oc1ccc(C(=O)c2ccc(Cl)cc2)cc1 [Fenofibrate, fenofibrate]
fa/fa rats [1]; [5]
  ALT [U/I], MW ± SEM: 47.0 ± 4.9 U/I
  AST [U/I], MW ± SEM: 30.3 ± 2.7 U/I
fa/fa rats [1]; [8]
  ALT [U/I], MW ± SEM: 44.7 ± 5.3 U/I
  AST [U/I], MW ± SEM: 33.5 ± 3.7 U/I
fa/fa rats [2]; [6]
  reduction of cholesterol in the plasma compared with the control group: 15%
  reduction of triglycerides in the plasma compared with the control group: 20%
fa/fa rats [2]; [10]
  increase of cholesterol in the plasma compared with the control group: 10%
  increase of triglycerides in the plasma compared with the control group: 38%

## CC(C)(Oc1ccc(CCNC(=O)c2ccc(Cl)cc2)cc1)C(=O)O [bezafibrate]
fa/fa rats [2]
  lowering of cholesterol in the plasma compared with the control group: 47%
  lowering of triglycerides in the plasma compared with the control group: 56%

## O=C(NC1CCN(CCCCC2(C(=O)NCC(F)(F)F)c3ccccc3-c3ccccc32)CC1)c1ccccc1-c1ccc(C(F)(F)F)cc1 [9-[4-[4-[2-(4-trifluoromethylphenyl)benzoylamino]piperidin-1-yl]butyl]-N-(2,2,2-trifluoro-ethyl)-9H-fluorene-9-carboxamide]
fa/fa rats [3]
  free fatty acids in the liver: increase
  triglycerides in the liver: increase
fa/fa rats [1]; [11]
  increase in the ALT activity in the blood plasma compared with the control group: 5.2 fold
  increase in the GLDH activity in the blood plasma compared with the control group: 7.7 fold
fa/fa rats [2]
  lowering of cholesterol in the plasma compared with the control group: 29%
  lowering of triglycerides in the plasma compared with the control group: 84%
